According to patent US9359297B2, “Spirolactam derivatives and uses of same” (H. Lundbeck A/S, priority 2009, dated 2016):

molecular target: T1, rat metabotropic glutamate receptor 5 (rmGluR5) (Rattus norvegicus, UniProt P31424); test: Calcium mobilization (FLIPR) assay for negative allosteric modulation, EC80 glutamate, rmGluR5 in HEK 293; format: cell-based; conditions: HEK293; rmGluR5, inhibition of EC80 glutamate response; read-out: FLIPR maximum inhibition
T1 construct: expressed in transfected cells
Experimental: The cDNA for rat metabotropic glutamate receptor 5 (rmGluR5) and the cDNA for human metabotropic glutamate receptor 5 (hmGluR5) were generous gifts from S. Nakanishi (Kyoto University, Kyoto, Japan). The rmGluR5 or hmGluR5 was stably expressed in a HEK 293 cell line and grown in Dulbecco's Modified Eagle Medium (DMEM) (Invitrogen, Carlsbad, Calif.) with supplements (10% bovine calf serum, 4 mM glutamine, 100 units/mL penicillin, 100 μg/mL streptomycin and 0.75 mM G1418) at 37° C., 5% CO2. Twenty-four hours prior to assay, cells were seeded into 384-well black wall microtiter plates coated with poly-D-lysine. Just prior to assay, media was aspirated and cells dye-loaded (25 μL/well) with 3 μM Fluo-4/0.01% pluronic acid in assay buffer (Hank's Balanced Saline Solution (HBSS)): 150 mM NaCl, 5 mM KCl, 1 mM CaCl2, 1 mM MgCl2, plus 20 mM N-2-Hydroxyethylpiperazine-N′-2-ethanesulfonic acid (HEPES), pH 7.4, 0.1% bovine serum albumin (BSA) and 2.5 mM probenicid) for 1 hour in 5% CO2 at 37° C. After excess dye was discarded, cells were washed in assay buffer and layered with a final volume equal to 30 μL/well. Basal fluorescence is monitored in a fluorometric imaging plate reader (FLIPR) (Molecular Devices, Sunnyvale, Calif.) with an excitation wavelength of 488 nm and an emission range of 500 to 560 nm. Laser excitation energy was adjusted so that basal fluorescence readings were approximately 10,000 relative fluorescent units. Cells were stimulated with an EC20 or an EC80 concentration of glutamate in the presence of a compound to be tested, both diluted in assay buffer, and relative fluorescent units were measured at defined intervals (exposure=0.6 sec) over a 3 min period at room temperature. Basal readings derived from negative controls were subtracted from all samples. Maximum change in fluorescence was calculated for each well. Concentration-response curves derived from the maximum change in fluorescence were analyzed by nonlinear regression (Hill equation). A negative modulator can be identified from these concentration-response curves if a compound produces a concentration dependent inhibition of the EC80 glutamate response.

T1 sequence (P31424 21-1203): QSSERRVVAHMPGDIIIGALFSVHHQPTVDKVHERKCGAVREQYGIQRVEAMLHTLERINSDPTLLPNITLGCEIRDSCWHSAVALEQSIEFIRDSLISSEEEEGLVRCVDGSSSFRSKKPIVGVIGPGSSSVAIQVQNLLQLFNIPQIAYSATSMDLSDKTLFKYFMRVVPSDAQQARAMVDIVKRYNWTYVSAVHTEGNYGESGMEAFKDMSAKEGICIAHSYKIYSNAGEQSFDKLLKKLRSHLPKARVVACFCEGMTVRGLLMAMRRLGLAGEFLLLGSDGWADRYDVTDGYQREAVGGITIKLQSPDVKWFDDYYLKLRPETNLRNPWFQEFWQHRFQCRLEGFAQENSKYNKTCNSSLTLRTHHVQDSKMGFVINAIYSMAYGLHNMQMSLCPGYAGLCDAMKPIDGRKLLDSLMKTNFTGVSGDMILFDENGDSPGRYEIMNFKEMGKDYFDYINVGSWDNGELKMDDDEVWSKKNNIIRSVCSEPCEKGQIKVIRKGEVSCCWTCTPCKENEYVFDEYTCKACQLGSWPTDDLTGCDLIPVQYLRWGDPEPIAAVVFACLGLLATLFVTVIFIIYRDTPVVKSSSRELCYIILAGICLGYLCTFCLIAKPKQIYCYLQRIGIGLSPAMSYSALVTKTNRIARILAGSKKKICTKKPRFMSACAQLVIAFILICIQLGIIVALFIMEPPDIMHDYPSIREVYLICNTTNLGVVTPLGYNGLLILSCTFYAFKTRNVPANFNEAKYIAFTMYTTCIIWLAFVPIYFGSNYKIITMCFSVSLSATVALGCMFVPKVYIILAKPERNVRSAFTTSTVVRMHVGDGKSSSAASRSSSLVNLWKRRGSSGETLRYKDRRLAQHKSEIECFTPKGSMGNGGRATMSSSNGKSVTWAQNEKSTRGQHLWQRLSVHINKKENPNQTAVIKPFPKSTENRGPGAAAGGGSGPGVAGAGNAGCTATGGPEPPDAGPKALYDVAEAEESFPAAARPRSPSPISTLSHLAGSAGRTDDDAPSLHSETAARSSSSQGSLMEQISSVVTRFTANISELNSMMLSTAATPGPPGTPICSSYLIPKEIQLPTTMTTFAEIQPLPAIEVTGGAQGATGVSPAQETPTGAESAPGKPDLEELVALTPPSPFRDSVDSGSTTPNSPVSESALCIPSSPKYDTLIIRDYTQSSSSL

Emax	SMILES
81 to 99%	Cc1cccc(C(=O)N[C@H]2CCC[C@@]3(CCN(c4cccc(Cl)c4)C3=O)C2)n1 (relative stereo) [Example 3, trans-6-Methyl-pyridine-2-carboxylic acid [2-(3-chloro-phenyl)-1-oxo-2-aza-spiro [4.5]dec-7-yl]-amide]
81 to 99%	Cc1cccc(N2CC[C@]3(CCC[C@H](NC(=O)c4ccccn4)C3)C2=O)n1 (relative stereo) [Example 7, cis-Pyridine-2-carboxylic acid [2-(6-methyl-pyridin-2-yl)-1-oxo-2-aza-spiro [4.5]dec-7-yl]-amide]
81 to 99%	Cc1cccc(C(=O)N[C@H]2CCC[C@]3(CCN(c4cccc(C#N)c4)C3=O)C2)n1 (relative stereo) [Example 10, cis-6-Methyl-pyridine-2-carboxylic acid [2-(3-cyano-phenyl)-1-oxo-2-aza-spiro [4.5]dec-7-yl]-amide]
81 to 99%	Cc1cncc(C(=O)N[C@H]2CCC[C@]3(CCN(c4cccc(C#N)c4)C3=O)C2)n1 (relative stereo) [Example 11, cis-6-Methyl-pyrazine-2-carboxylic acid [2-(3-cyano-phenyl)-1-oxo-2-aza-spiro [4.5]dec-7-yl]-amide]
81 to 99%	Cc1cncc(C(=O)N[C@H]2CCC[C@]3(CCN(c4cccc(Cl)c4)C3=O)C2)n1 (relative stereo) [Example 12, cis-6-Methyl-pyrazine-2-carboxylic acid [2-(3-chloro-phenyl)-1-oxo-2-aza-spiro [4.5]dec-7-yl]-amide]
81 to 99%	Cc1cccc(C(=O)N[C@H]2CCC[C@@]3(CCN(c4cccc(F)c4)C3=O)C2)n1 (relative stereo) [Example 18, trans-6-Methyl-pyridine-2-carboxylic acid [2-(3-fluoro-phenyl)-1-oxo-2-aza-spiro [4.5]dec-7-yl]-amide]
81 to 99%	O=C(N[C@H]1CCC[C@@]2(CCN(c3cccc(F)c3)C2=O)C1)c1ccccn1 (relative stereo) [Example 20, trans-Pyridine-2-carboxylic acid [2-(3-fluoro-phenyl)-1-oxo-2-aza-spiro [4.5]dec-7-yl]-amide]
81 to 99%	Cc1cncc(C(=O)N[C@H]2CCC[C@]3(CCN(c4cccc(F)c4)C3=O)C2)n1 (relative stereo) [Example 21, cis-6-Methyl-pyrazine-2-carboxylic acid [2-(3-fluoro-phenyl)-1-oxo-2-aza-spiro [4.5]dec-7-yl]-amide]
81 to 99%	Cc1cncc(C(=O)N[C@H]2CCC[C@@]3(CCN(c4cccc(F)c4)C3=O)C2)n1 (relative stereo) [Example 22, trans-6-Methyl-pyrazine-2-carboxylic acid[2-(3-fluoro-phenyl)-1-oxo-2-aza-spiro [4.5]dec-7-yl]-amide]
81 to 99%	Cc1ccnc(N2CC[C@]3(CCC[C@H](NC(=O)c4ccccn4)C3)C2=O)n1 (relative stereo) [Example 29, cis-Pyridine-2-carboxylic acid [2-(4-methyl-pyrimidin-2-yl)-1-oxo-2-aza-spiro [4.5]dec-7-yl]-amide]
81 to 99%	O=C(N[C@H]1CCC[C@]2(CCN(c3ccc(F)cn3)C2=O)C1)c1ccccn1 (relative stereo) [Example 33, cis-Pyridine-2-carboxylic acid [2-(5-fluoro-pyridin-2-yl)-1-oxo-2-aza-spiro [4.5]dec-7-yl]-amide]
81 to 99%	Cc1cncc(N2CC[C@]3(CCC[C@H](NC(=O)c4ccccn4)C3)C2=O)n1 (relative stereo) [Example 39, cis-Pyridine-2-carboxylic acid [2-(6-methyl-pyrazin-2-yl)-1-oxo-2-aza-spiro [4.5]dec-7-yl]-amide]

The remaining lines, values behind:

SMILES	Emax
Cc1cccc(C(=O)N[C@H]2CCC[C@]3(CCN(c4ccc(F)cc4)C3=O)C2)n1 (racemic) [Example 44, cis-6-Methyl-pyridine-2-carboxylic acid [2-(4-fluoro-phenyl)-1-oxo-2-aza-spiro[4.5]dec-7-yl]-amide]	81 to 99%
N#Cc1cccc(N2CC[C@]3(CCC[C@H](NC(=O)c4ccccn4)C3)C2=O)c1 (relative stereo) [Example 9, cis-Pyridine-2-carboxylic acid [2-(3-cyano-phenyl)-1-oxo-2-aza-spiro[4.5]dec-7-yl]-amide]	81 to 99%
O=C(N[C@H]1CCC[C@]2(CCN(c3cccc(Cl)c3)C2=O)C1)c1cnccn1 (relative stereo) [Example 13, cis-Pyrazine-2-carboxylic acid [2-(3-chloro-phenyl)-1-oxo-2-aza-spiro[4.5]dec-7-yl]-amide]	81 to 99%
Cn1ccc(C(=O)N[C@H]2CCC[C@]3(CCN(c4cccc(Cl)c4)C3=O)C2)n1 (relative stereo) [Example 14, cis-1-Methyl-1H-pyrazole-3-carboxylic acid [2-(3-chloro-phenyl)-1-oxo-2-aza-spiro[4.5]dec-7-yl]-amide]	81 to 99%
N#Cc1cccc(N2CC[C@]3(CCC[C@H](NC(=O)c4cccc(F)c4)C3)C2=O)c1 (relative stereo) [Example 15, cis-N-[2-(3-Cyano-phenyl)-1-oxo-2-aza-spiro[4.5]dec-7-yl]-3-fluoro-benzamide]	81 to 99%
N#Cc1cccc(N2CC[C@]3(CCC[C@H](NC(=O)c4cccc(Cl)c4)C3)C2=O)c1 (relative stereo) [Example 16, cis-N-[2-(3-Cyano-phenyl)-1-oxo-2-aza-spiro[4.5]dec-7-yl]-3-chloro-benzamide]	81 to 99%
Cc1cccc(C(=O)N[C@H]2CCC[C@]3(CCN(c4cccc(F)c4)C3=O)C2)n1 (relative stereo) [Example 17, cis-6-Methyl-pyridine-2-carboxylic acid [2-(3-fluoro-phenyl)-1-oxo-2-aza-spiro[4.5]dec-7-yl]-amide]	81 to 99%
Cc1cccc(N2CC[C@@]3(CCC[C@H](NC(=O)c4cccc(F)c4)C3)C2=O)n1 (relative stereo) [Example 24, trans-3-Fluoro-N-[2-(6-methyl-pyridin-2-yl)-1-oxo-2-aza-spiro[4.5]dec-7-yl]-benzamide]	81 to 99%
O=C(N[C@H]1CCC[C@]2(CCN(c3ccccn3)C2=O)C1)c1cccc(F)c1 (relative stereo) [Example 26, 3-Fluoro-N-(1-oxo-2-pyridin-2-yl-2-aza-spiro[4.5]dec-7-yl)-benzamide]	81 to 99%
O=C(N[C@H]1CCC[C@]2(CCN(c3cc(F)ccn3)C2=O)C1)c1ccccn1 (relative stereo) [Example 30, cis-Pyridine-2-carboxylic acid [2-(4-fluoro-pyridin-2-yl)-1-oxo-2-aza-spiro[4.5]dec-7-yl]-amide]	81 to 99%
Cc1cccc(C(=O)N[C@H]2CCC[C@]3(CCN(c4ccc(F)cn4)C3=O)C2)n1 (relative stereo) [Example 31, cis-6-Methyl-pyridine-2-carboxylic acid [2-(5-fluoro-pyridin-2-yl)-1-oxo-2-aza-spiro[4.5]dec-7-yl]-amide]	81 to 99%
Cc1cccc(C(=O)N[C@H]2CCC[C@]3(CCN(c4cc(F)ccn4)C3=O)C2)n1 (relative stereo) [Example 32, cis-6-Methyl-pyridine-2-carboxylic acid [2-(4-fluoro-pyridin-2-yl)-1-oxo-2-aza-spiro[4.5]dec-7-yl]-amide]	81 to 99%
Cc1cccc(C(=O)N[C@H]2CCC[C@]3(CCN(c4nccc(C)n4)C3=O)C2)n1 (relative stereo) [Example 34, cis-6-Methyl-pyridine-2-carboxylic acid [2-(4-methyl-pyrimidin-2-yl)-1-oxo-2-aza-spiro[4.5]dec-7-yl]-amide]	81 to 99%
O=C(N[C@H]1CCC[C@]2(CCN(c3ccc(F)cn3)C2=O)C1)c1cccc(F)c1 (relative stereo) [Example 35, cis-3-Fluoro-N-[2-(5-fluoro-pyridin-2-yl)-1-oxo-2-aza-spiro[4.5]dec-7-yl]-benzamide]	81 to 99%
O=C(N[C@H]1CCC[C@]2(CCN(c3cc(F)ccn3)C2=O)C1)c1cccc(F)c1 (relative stereo) [Example 36, cis-3-Fluoro-N-[2-(4-fluoro-pyridin-2-yl)-1-oxo-2-aza-spiro[4.5]dec-7-yl]-benzamide]	81 to 99%
Cc1ccnc(N2CC[C@]3(CCC[C@H](NC(=O)c4cccc(F)c4)C3)C2=O)n1 (relative stereo) [Example 37, cis-3-Fluoro-N-[2-(4-methyl-pyrimidin-2-yl)-1-oxo-2-aza-spiro[4.5]dec-7-yl]-benzamide]	81 to 99%
Cc1cncc(N2CC[C@]3(CCC[C@H](NC(=O)c4cccc(F)c4)C3)C2=O)n1 (relative stereo) [Example 38, cis-3-Fluoro-N-[2-(6-methyl-pyrazin-2-yl)-1-oxo-2-aza-spiro[4.5]dec-7-yl]-benzamide]	81 to 99%
